The record followed here is ChEMBL document CHEMBL1201862, “PubChem BioAssay data set” (2004).

SMILES strings stand for the structures.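 Results reflect a 48-hour exposure of cells in 96-well plates to compound at five concentrations. GI50 = concentration required for 50% inhibition of growth.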 Calls of active or inactive are those of the source. Cut-off read from the data, not from the text of the source: active = GI50 up to about 1.1 µM and inactive = higher.

Test systems include HOP-62; HCC 2998; UACC-257; CAKI-1; M19-MEL; RPMI-8226; COLO 205; HT-29; SNB-19; CCRF-CEM; SNB-75; NCI-H522; EKVX; KM12; SF-539; RXF 393; NCI/ADR-RES; DU-145; BT-549; MDA-MB-435.
Common to all, as to experiment: NCI tumour cell line growth inhibition, 48 h

Take `O=C(O)C12C=CC(C1)c1ccccc12` (centres undefined): the GI50 in the experiment on HOP-62, in the experiment with HCC 2998, with UACC-257, in the experiment with CAKI-1, in the experiment with M19-MEL and with RPMI-8226 was > 100 µM (inactive) each time. In addition, the GI50 in the experiment with COLO 205, with HT-29, in the experiment with SNB-19 and with CCRF-CEM was > 100 µM (inactive) throughout.
Regarding `CC(C)(C)C(=O)Cc1cc2c(cc1C(=O)O)S(=O)(=O)NC(C(C)(C)C)=C2`, the GI50 with HOP-62, with SNB-75, in the experiment with NCI-H522, in the experiment on UACC-257, in the experiment with EKVX and in the experiment on CAKI-1 was > 100 µM (inactive) each time. Moreover, the GI50 in the experiment with M19-MEL, in the experiment on RPMI-8226, with COLO 205, in the experiment with KM12, in the experiment with HT-29 and with SNB-19 was > 100 µM (inactive) throughout. The GI50 in the experiment with CCRF-CEM was > 100 µM (inactive).
`Cc1ccc(S(=O)(=O)n2ccc(-c3ccc4ccn(S(=O)(=O)c5ccc(C)cc5)c4c3)c2)cc1`: the GI50 in the experiment on HOP-62 is > 100 µM (inactive); in the experiment with SNB-75 it was 94.2 µM (inactive); in the experiment with NCI-H522, > 100 µM (inactive); in the experiment with HCC 2998, > 100 µM (inactive); in the experiment on SF-539, > 100 µM (inactive); in the experiment with UACC-257, > 100 µM (inactive). The GI50 in the experiment with EKVX is > 100 µM (inactive); in the experiment on CAKI-1 it was > 100 µM (inactive); in the experiment with RXF 393 it was 12.9 µM (inactive); in the experiment with NCI/ADR-RES it was > 100 µM (inactive); in the experiment with DU-145 it was > 100 µM (inactive); in the experiment on RPMI-8226 it was > 100 µM (inactive). Besides, the GI50 is > 100 µM (inactive) in the experiment with COLO 205; > 100 µM (inactive) in the experiment on BT-549; > 100 µM (inactive) with KM12; > 100 µM (inactive) in the experiment with HT-29; > 100 µM (inactive) in the experiment on MDA-MB-435; 41 µM (inactive) in the experiment on SNB-19. In addition, the GI50 in the experiment with CCRF-CEM was > 100 µM (inactive).
`COc1ccccc1C(=O)NCC1CCCN2CCCCC12` (centres undefined): the GI50 with HOP-62, in the experiment on SNB-75, in the experiment with NCI-H522, with HCC 2998, in the experiment with SF-539 and in the experiment with UACC-257 was > 100 µM (inactive) in each case. The GI50 in the experiment on EKVX, with CAKI-1, in the experiment with RXF 393, in the experiment on NCI/ADR-RES, in the experiment with DU-145 and in the experiment with RPMI-8226 was > 100 µM (inactive) throughout. The GI50 with COLO 205, with BT-549, with KM12, in the experiment with HT-29, in the experiment on MDA-MB-435 and in the experiment with SNB-19 was > 100 µM (inactive) in each case. For the same compound, the GI50 in the experiment with CCRF-CEM was > 100 µM (inactive).
On to `CCN(CCCN(CC)C(=O)Nc1ccccc1)C(=O)Nc1ccccc1`, for which the GI50 in the experiment on HOP-62, with SNB-75, with NCI-H522, with HCC 2998, with SF-539 and in the experiment on UACC-257 was > 100 µM (inactive) throughout. Further, the GI50 in the experiment with EKVX, in the experiment with CAKI-1, with RXF 393, with NCI/ADR-RES, in the experiment on DU-145 and in the experiment with RPMI-8226 was > 100 µM (inactive) each time. The GI50 in the experiment with COLO 205, in the experiment on BT-549, in the experiment with KM12, in the experiment with HT-29, with MDA-MB-435 and in the experiment on SNB-19 was > 100 µM (inactive) in each case. The GI50 in the experiment on CCRF-CEM was > 100 µM (inactive).
With `O=C(O)c1ccc(NS(=O)(=O)Cc2ccccc2)cc1`, the GI50 with HOP-62, with SNB-75, in the experiment on NCI-H522, with HCC 2998, in the experiment with SF-539 and with UACC-257 was > 100 µM (inactive) each time. Moreover, the GI50 with EKVX, in the experiment with CAKI-1, with RXF 393, with NCI/ADR-RES, with DU-145 and in the experiment on RPMI-8226 was > 100 µM (inactive) throughout. Further, the GI50 in the experiment on COLO 205, in the experiment on BT-549, in the experiment on KM12, in the experiment on HT-29, in the experiment with MDA-MB-435 and with SNB-19 was > 100 µM (inactive) throughout. Besides, in the experiment with CCRF-CEM, the GI50 is > 100 µM (inactive).
As for `COC1CC(NC(=O)C(F)(F)F)C(OC(C)=O)C(C)O1` (centres undefined), the GI50 in the experiment with HOP-62, in the experiment on SNB-75, with NCI-H522, with HCC 2998, with SF-539 and in the experiment on UACC-257 was > 100 µM (inactive) in each case. Moreover, the GI50 in the experiment on EKVX, with CAKI-1, in the experiment on RXF 393, with NCI/ADR-RES, with DU-145 and with RPMI-8226 was > 100 µM (inactive) in each case. Also, the GI50 in the experiment with COLO 205, in the experiment on BT-549, with KM12, in the experiment with HT-29, in the experiment on MDA-MB-435 and in the experiment on SNB-19 was > 100 µM (inactive) each time. The GI50 with CCRF-CEM was > 100 µM (inactive).
For `CCOC(=O)CCc1ccc(NC(=O)/C=C/c2ccc([N+](=O)[O-])o2)cc1`, the GI50 is 3.27 µM (inactive) in the experiment on HOP-62; 2.16 µM (inactive) in the experiment with SNB-75; 0.287 µM (active) with NCI-H522; 2.69 µM (inactive) in the experiment with HCC 2998; 1.72 µM (inactive) in the experiment on SF-539; 0.798 µM (active) in the experiment on UACC-257. Also, the GI50 is > 100 µM (inactive) in the experiment with EKVX; 2.47 µM (inactive) in the experiment with CAKI-1; 0.794 µM (active) with RXF 393; 1.78 µM (inactive) in the experiment with NCI/ADR-RES; 2.1 µM (inactive) in the experiment on DU-145; 0.286 µM (active) in the experiment on RPMI-8226. Further, the GI50 with COLO 205 is 1.52 µM (inactive); in the experiment on BT-549 it was 2.66 µM (inactive); in the experiment with KM12 it was 1.56 µM (inactive); with HT-29, 0.925 µM (active); in the experiment on MDA-MB-435, 0.316 µM (active); in the experiment on SNB-19, 9.82 µM (inactive). In addition, in the experiment on CCRF-CEM, the GI50 is 0.177 µM (active).
As for `NC(=O)Cc1nc2c(O)ncnc2n1C1OC(CO)C(O)C1O` (centres undefined), the GI50 in the experiment with HOP-62, in the experiment with SNB-75, with NCI-H522, in the experiment on HCC 2998, with SF-539 and in the experiment on UACC-257 was > 100 µM (inactive) each time. Moreover, the GI50 in the experiment on EKVX, in the experiment on CAKI-1, in the experiment with RXF 393, in the experiment on NCI/ADR-RES, in the experiment with DU-145 and in the experiment with RPMI-8226 was > 100 µM (inactive) throughout. Moreover, the GI50 with COLO 205, in the experiment on BT-549, in the experiment on KM12, with HT-29, in the experiment on MDA-MB-435 and with SNB-19 was > 100 µM (inactive) throughout. Also, in the experiment on CCRF-CEM, the GI50 is > 100 µM (inactive).
Consider `COC(=O)c1ccc(CCc2cc(O)ccc2O)cc1`, for which the GI50 was 12.2 µM (inactive) in the experiment on HOP-62; 3.77 µM (inactive) in the experiment on SNB-75; 0.706 µM (active) with NCI-H522; 23.9 µM (inactive) with HCC 2998; 3.66 µM (inactive) with SF-539; 13 µM (inactive) in the experiment with UACC-257. In addition, the GI50 with EKVX is 13.3 µM (inactive); in the experiment on CAKI-1, 4.06 µM (inactive); with RXF 393, 7.89 µM (inactive); with NCI/ADR-RES, 12.8 µM (inactive); in the experiment on DU-145, 32.4 µM (inactive); in the experiment on RPMI-8226, 0.847 µM (active). Also, the GI50 in the experiment with COLO 205 was 23.9 µM (inactive); in the experiment on BT-549 it was 5.7 µM (inactive); with KM12 it was 5.52 µM (inactive); in the experiment with HT-29, 28.4 µM (inactive); in the experiment with MDA-MB-435 it was 6.08 µM (inactive); in the experiment on SNB-19, 12 µM (inactive). For the same compound, in the experiment on CCRF-CEM, the GI50 was 0.67 µM (active).
Regarding `COCc1nc(N)nc(N2N=C(C)CC2(C)C)n1`, the GI50 with HOP-62, with SNB-75, with NCI-H522, with HCC 2998, with SF-539 and in the experiment with UACC-257 was > 100 µM (inactive) in each case. Besides, the GI50 in the experiment with EKVX, in the experiment on CAKI-1, with RXF 393, in the experiment with NCI/ADR-RES, with DU-145 and in the experiment with RPMI-8226 was > 100 µM (inactive) each time. Besides, the GI50 in the experiment on COLO 205, in the experiment on BT-549, in the experiment with KM12, in the experiment on HT-29, in the experiment with MDA-MB-435 and in the experiment on SNB-19 was > 100 µM (inactive) in each case. In the experiment on CCRF-CEM, the GI50 was > 100 µM (inactive).
